For 18 compounds, melting point results are on record in patent US9840515B2, “Protein kinase D inhibitors” (University of Pittsburgh—Of the Commonwealth System of …, priority 2010, dated 2017).

For `CC(=O)Oc1ccc2oc3c(c2c1)CCCN(C(C)=O)C3=O` [kb-NB123-45-1, 2-Acetyl-1-oxo-3H,4H,5H-azepino[5,6-d]benzo[b]furan-7-yl acetate], the melting point was 155 to 157 °C. As for `O=C(OCc1ccccc1)N1CCCc2c1c(=O)oc1ccc(O)cc21` [kb-NB77-91, Phenylmethyl 9-hydroxy-5-oxo-1,2,3,4-tetrahydrochromeno[3,4-b]pyridine-4-carboxylate], the figure is 235 to 237 °C; as for `COc1ccc2sc3c(c2c1)[S+]([O-])CCNC3=O` (stereo not drawn) [kb-NB184-45, 3,4-Dihydro-9-methoxy-1-oxide-[1]benzothieno[2,3-f]-1,4-thiazepin-5(2H)-one], 215 to 217 °C; as for `COc1ccc2sc3c(c2c1)OCCCNC3=O` [kb-NB184-57, 2,3,4,5-Tetrahydro-10-methoxybenzo[b]thieno[2,3-f]-1,5-oxazocin-6-one], 233 to 237 °C.

`CN1CCCc2c(oc3ccc(O)cc23)C1=O` [kb-NB142-25, 7-Hydroxy-2-methyl-3,4,5-trihydro-[1]benzoxolo[2,3-c]azepin-1-one] registered a melting point of 282 to 284 °C.

In the case of `O=c1oc2ccc(O)c(Cl)c2c2c1NCCC2` [kb-NB96-47-1, 10-Chloro-9-hydroxy-1,2,3,4-tetrahydrochromeno[3,4-b]pyridin-5-one], the melting point lay within 211 to 213 °C. On to `O=C1NCCSc2c1sc1c(OCc3ccccc3)cccc21` [kb-NB184-38, 3,4-Dihydro-7-benzyloxy-[1]benzothieno[2,3-f]-1,4-thiazepin-5(2H)-one], for which the melting point is 213 to 215 °C. As for `O=C1NCCCOc2c1sc1ccc(OCc3ccccc3)cc21` [kb-NB184-36, 2,3,4,5-Tetrahydro-10-benzyloxybenzo[b]thieno[2,3-f]-1,5-oxazocin-6-one], the melting point was in the range of 195 to 200 °C.

In the case of `COc1nc(OC)c2sc3c(c2n1)SCCNC3=O` [kmg-NB5-13C, 2,4-Dimethoxy-7H,8H,9H-1,4-thiazepino[7′,6′-5,4]thiopheno[3,2-d]pyrimidin-6-one], the melting point was 288 °C (dec.). The compound `C=CCOc1ccc2oc(=O)c3c(c2c1)CCCN3` [kb-NB77-83, 9-Allyloxy-1,2,3,4-tetrahydrochromeno[3,4-b]pyridin-5-one] showed a melting point of 90 to 91 °C.

Consider `CC(=O)Oc1ccc2oc3c(c2c1)CCCNC3=O` [kb-NB123-36, 7-Acetoxy-2,3,4,5-tetrahydro-[1]benzoxolo[2,3-c]azepin-1-one], for which the melting point fell in the range of 196 to 197 °C. As for `COc1ccc2oc3c(c2c1)CCCN(C)C3=O` [kb-NB96-04, 7-Methoxy-2-methyl-3H,4H,5H-azepino[5,6-d]benzo[b]furan-1-one], the figure is 150 to 151 °C; as for `CC(C)(C)[Si](C)(C)Oc1ccc2oc(=O)c3c(c2c1)CCCN3`, 117 to 119 °C.

`O=C1NCCc2c1oc1ccc(O)cc21` [kb-NB123-23A, 6-Hydroxy-2,3,4-trihydrobenzo[b]pyridino[4,3-d]furan-1-one] gave a melting point of 265 to 268 °C. As for `O=C1NCCSc2c1sc1c(O)cccc21` [kb-NB184-40, 3,4-Dihydro-7-hydroxy-[1]benzothieno[2,3-f]-1,4-thiazepin-5(2H)-one], the figure is 269 to 272 °C (dec.); as for `O=C1NCCSc2c1sc1ccc(OCc3ccccc3)cc21` [kb-NB123-66, 3,4-Dihydro-9-benzyloxy-[1]benzothieno[2,3-f]-1,4-thiazepin-5(2H)-one], 247 to 249 °C; as for `COc1ccc2oc3c(c2c1)CCCNC3=O` [kb-NB77-56, 7-Methoxy-2,3,4,5-tetrahydro-[1]benzoxolo[2,3-c]azepin-1-one], 261 to 263 °C.

`COc1cccc2c3c(sc12)C(=O)NCCS3` [kb-NB184-44, 3,4-Dihydro-7-methoxy-[1]benzothieno[2,3-f]-1,4-thiazepin-5(2H)-one]: the melting point was 220 to 224 °C.

For orientation: melting point means the temperature of the solid-liquid transition.
